We go through 15 compounds from patent US12440494B2, “Compounds useful for inhibiting RAF dimers” (ALBERT EINSTEIN COLLEGE OF MEDICINE, priority 2019, dated 2025).

The IC50 is the concentration that inhibits the measured activity by half.

For assay [1], the target named is T1, BRAF^V600E (Homo sapiens (Human), UniProt P15056, V600E). Kind of assay: BRAF^V600E kinase activity, Z′-LYTE enzymatic assay (SelectScreen, Invitrogen). It counts as biochemical. As to conditions: 100 μM ATP; read-out: BRAF^V600E Inhibition IC50. As to the method: BRAF kinase assays were performed using the Z′-LYTE™ enzymatic assay (Invitrogen, USA). […] Titrations were performed using a 1:3 dilution. Assays were performed using SelectScreen (Invitrogen).
Target sequence in this assay (P15056 whole entry V600E): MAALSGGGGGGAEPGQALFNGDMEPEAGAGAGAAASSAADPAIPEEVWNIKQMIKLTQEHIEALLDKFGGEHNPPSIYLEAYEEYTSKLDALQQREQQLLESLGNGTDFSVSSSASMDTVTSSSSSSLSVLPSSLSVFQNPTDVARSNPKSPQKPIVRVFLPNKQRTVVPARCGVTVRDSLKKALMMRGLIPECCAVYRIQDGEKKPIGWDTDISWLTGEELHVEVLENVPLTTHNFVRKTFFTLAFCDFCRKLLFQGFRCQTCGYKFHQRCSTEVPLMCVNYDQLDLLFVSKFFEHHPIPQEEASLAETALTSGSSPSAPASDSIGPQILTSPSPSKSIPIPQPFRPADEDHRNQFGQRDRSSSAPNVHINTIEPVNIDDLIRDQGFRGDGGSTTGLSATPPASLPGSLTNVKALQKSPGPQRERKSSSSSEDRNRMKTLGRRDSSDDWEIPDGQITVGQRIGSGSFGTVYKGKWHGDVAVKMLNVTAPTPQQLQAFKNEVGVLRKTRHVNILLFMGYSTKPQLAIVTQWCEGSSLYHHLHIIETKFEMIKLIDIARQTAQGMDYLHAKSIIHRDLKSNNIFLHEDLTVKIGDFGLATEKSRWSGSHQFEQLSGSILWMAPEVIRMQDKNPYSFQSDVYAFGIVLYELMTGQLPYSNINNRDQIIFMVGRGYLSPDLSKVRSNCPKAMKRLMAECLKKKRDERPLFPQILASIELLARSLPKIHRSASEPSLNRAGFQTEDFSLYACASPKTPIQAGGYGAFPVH

Assay [2] addresses T1, BRAF^V600E. Kind of assay: In vitro kinase assay, BRAF^V600E activity to phosphorylate recombinant MEK (western blot). It counts as biochemical. As to conditions: western blot readout. (In general: Immunoblotting shows a protein as a band on a membrane.)
Target sequence in this assay (P15056 457-717 V600E): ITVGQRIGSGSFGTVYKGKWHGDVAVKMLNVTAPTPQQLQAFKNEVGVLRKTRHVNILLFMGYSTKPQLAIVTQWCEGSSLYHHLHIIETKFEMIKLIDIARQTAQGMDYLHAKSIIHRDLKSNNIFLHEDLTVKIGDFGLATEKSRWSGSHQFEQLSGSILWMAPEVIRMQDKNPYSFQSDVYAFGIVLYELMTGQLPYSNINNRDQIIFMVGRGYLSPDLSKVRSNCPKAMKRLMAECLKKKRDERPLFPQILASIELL
Procedure: (§2) Western blots were performed from whole cell lysates (WCL) prepared in lysis buffer containing 50 mM Tris-HCl pH7.5, 1% NP40, 150 mM NaCl, 1 mM EDTA and 10% glycerol in the presence of protease inhibitor cocktail (Roche). […] Co-immunoprecipitation assays were performed from whole cell lysate prepared in lysis buffer in the presence of protease inhibitor cocktail (Roche) and incubated at 4° C. overnight with gentle rotation, then protein G beads were added and incubated for 2 hrs more at 4° C. Kinase activity assay were performed following manufactured protocol with some modifications (Millipore). In brief, BRAF and CRAF kinase domain, and MEK1 recombinant proteins were incubated for 15 min with inhibitors, then corresponding substrates were added and incubated for 30 min at 30° C. and assay for western blot.
Assay [3] has as its target CRAF (Homo sapiens (Human), UniProt P04049). As to the kind of experiment: In vitro CRAF kinase activity assay (western blot). The format is biochemical.
Procedure: as §2
Assay [4] concerns ERK signaling. Kind of assay: Inhibition of ERK signaling in BRAF^V600E, p61BRAF^V600E and RAS mutant/BRAF^WT cell lines (immunoblot). It counts as cell-based. The settings on record: 1 μM or 5 μM, 1 hr, all cell lines. As to the method: (§1) Cell lines were purchased from ATCC or provided by Poulikos Poulikakos laboratory at Icahn School of Medicine at Mount Sinai. A375, SKMEL30 and SKMEL2 cells were grown in Dulbecco's modified Eagle's medium (DMEM) with 10% fetal bovine serum (FBS), 1% Pen-Strep, 1% Glutamine. […] CALU6 cells were grown in Roswell Park Memorial Institute medium (RPMI) with 10% fetal bovine serum (FBS), 1% Pen-Strep, 1% Glutamine.

The subject of assay [5] is BRAF^V600E. As to the kind of experiment: Biolayer interferometry, direct binding to purified BRAF. On the set-up: species or system human. As to the method:
Human BRAF kinase domain (residues 443-723) with V600E mutation in addition to designed mutations to improve expression in E. coli as previously described^12 was cloned into the first multiple cloning site of a pET-28a vector, which expresses a hexa-histidine tag at the N-terminus of BRAF. Recombinant protein was transformed and expressed into E. coli strain BL21-Codon Plus(DE3)-RIPL (Agilent Technologies). Protein purification was performed by a rapid two-step procedure using nickel-affinity chromatography (Ni-NTA) followed by size exclusion chromatography with Superdex200 HR 10/30 (GE Healthcare).
BRAF was biotinylated using EZ-Link™ Sulfo NHS-LC-LC-Biotin (Invitrogen) in phosphate-buffered saline (PBS) according to manufacturer instructions. Excess biotin was removed using size exclusion chromatography. Freshly biotinylated protein was immobilized on Super Streptavidin biosensors (SSA) to high levels (6-8 nm) followed by quenching with biocytin. Compound binding experiments were performed at 25° C. in PBS, 0.01% Tween-20 and 2% DMSO. To reference for bulk solvent effects, binding curves were corrected using data from control protein-free SSA biosensors, which were included in each experiment and were treated similarly to protein-loaded sensors.
A general note: BLI is a label-free optical method that tracks binding on a fibre tip over time.

Assay [6] concerns FGFR. Kind of assay: Kinase inhibition of known ponatinib target FGFR. It counts as biochemical.
In assay [7] the target is FLT3 (Homo sapiens (Human), UniProt P36888). As to the kind of experiment: Kinase inhibition of known ponatinib target FLT3. The format is biochemical.
Chain of FLT3 (P36888 27-993, species assumed): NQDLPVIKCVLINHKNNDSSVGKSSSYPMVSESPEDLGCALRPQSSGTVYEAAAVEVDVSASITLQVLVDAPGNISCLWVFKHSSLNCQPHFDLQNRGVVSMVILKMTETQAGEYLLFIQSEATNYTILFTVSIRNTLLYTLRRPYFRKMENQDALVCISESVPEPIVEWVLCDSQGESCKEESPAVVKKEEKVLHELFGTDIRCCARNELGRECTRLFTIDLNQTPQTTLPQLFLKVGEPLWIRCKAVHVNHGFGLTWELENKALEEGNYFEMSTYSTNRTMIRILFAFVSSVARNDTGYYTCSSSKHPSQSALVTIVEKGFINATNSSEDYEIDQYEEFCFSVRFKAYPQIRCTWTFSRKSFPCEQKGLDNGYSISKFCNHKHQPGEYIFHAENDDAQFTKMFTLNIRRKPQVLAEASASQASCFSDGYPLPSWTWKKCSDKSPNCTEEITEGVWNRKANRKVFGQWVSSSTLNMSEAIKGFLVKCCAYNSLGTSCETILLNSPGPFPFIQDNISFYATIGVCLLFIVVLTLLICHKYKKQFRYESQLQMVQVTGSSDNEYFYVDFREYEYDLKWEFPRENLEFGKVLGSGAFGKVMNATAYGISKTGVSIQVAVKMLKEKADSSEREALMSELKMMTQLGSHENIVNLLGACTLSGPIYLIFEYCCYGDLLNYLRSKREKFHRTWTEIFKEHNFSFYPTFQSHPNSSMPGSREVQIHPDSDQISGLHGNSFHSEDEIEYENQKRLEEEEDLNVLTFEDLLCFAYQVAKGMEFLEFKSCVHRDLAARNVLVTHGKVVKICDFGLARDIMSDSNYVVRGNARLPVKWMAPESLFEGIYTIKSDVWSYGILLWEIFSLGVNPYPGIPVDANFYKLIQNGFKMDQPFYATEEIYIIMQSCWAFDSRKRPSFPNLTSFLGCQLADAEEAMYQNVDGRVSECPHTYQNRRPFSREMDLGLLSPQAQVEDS
In assay [8] the test system is p61BRAF^V600E dimers (SKMEL239-C4 cells). Kind of assay: pMEK/pERK inhibition by western blot in SKMEL239-C4 melanoma cells. The format is cell-based. As to the method: as §1
In assay [9] the test system is BRAF^V600E monomers (A375 cells). Kind of assay: pMEK/pERK inhibition by western blot in A375 melanoma cells. It counts as cell-based. The settings on record: compared to ponatinib. As to the method: as §1
For assay [10], the system named is SMEL239 C4 melanoma cells. Kind of assay: Cell viability assay (Cell-Titer Glo), SKMEL239 C4. It counts as cell-based. As to conditions: 72 hours. As to the method: For cell viability assays, we followed the manufacturer's protocol for Cell-Titer Glo (Promega). In brief, cells were plated in 96-well plates at a density of 5000 cells per well. The next day, cells were treated with increasing concentrations of inhibitors for 72 hours at 37° C. At the end of the incubation period, 100 µL of Cell-Titer Glo (Promega) was added to each well and further incubated for 15 min. at room temperature. Cell viability was determined by measuring luminescence and was detected by a F200 PRO microplate reader (TECAN). Viability assays were performed in at least triplicate and the data normalized to vehicle-treated control wells. IC50 values were determined by nonlinear regression analysis using Prism software (Graphpad).

Assay [11] has as its target BRAF monomer (BRAF509H mutant) (Homo sapiens (Human), UniProt P15056, R509H). As to the kind of experiment: Isothermal titration calorimetry with BRAF509H mutant unable to dimerize. The format is binding. The settings on record: PBS plus 2% DMSO. (Isothermal titration calorimetry measures the heat released or taken up as one component is titrated into another.)
Procedure: ITC was recorded using a MicroCal PEAQ-ITC instrument. […] Immediately before each ITC measurement, concentrated protein solution was diluted 0.8× in PBS, matched to 2% DMSO and used in the syringe. Protein was titrated in 18 or 20 injections of 2 l volume until saturation. Thermodynamic parameters were obtained using PEAQ-ITC analysis software and a one-site binding model.
For assay [12], the system named is BRAF/CRAF heterodimers. As to the kind of experiment: CRAF co-immunoprecipitation monitoring BRAF/CRAF heterodimerization in cells. The format is cell-based. The settings on record: 1 μM (PHI1) or 1-5 μM (ponatinib), 1 hr.
Procedure: as §2
Assay [13] concerns BRAF/MEK complex. Kind of assay: MEK co-immunoprecipitation monitoring BRAF/MEK complex formation in cells. The format is cell-based. As to conditions: 1 μM (PHI1) or 1-5 μM (ponatinib), 1 hr.
Procedure: as §2

Chain of BRAF monomer (BRAF509H mutant) (P15056 443-723 R509H limits assumed): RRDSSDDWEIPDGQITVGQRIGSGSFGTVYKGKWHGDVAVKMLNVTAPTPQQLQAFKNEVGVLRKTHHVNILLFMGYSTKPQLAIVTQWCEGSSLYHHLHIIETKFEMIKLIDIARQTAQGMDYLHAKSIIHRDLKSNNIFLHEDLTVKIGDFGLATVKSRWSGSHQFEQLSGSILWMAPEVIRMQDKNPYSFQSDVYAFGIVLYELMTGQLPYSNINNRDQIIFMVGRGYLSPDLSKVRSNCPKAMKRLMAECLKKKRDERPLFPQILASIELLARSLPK
Chain of CRAF (P04049 349-609, species assumed): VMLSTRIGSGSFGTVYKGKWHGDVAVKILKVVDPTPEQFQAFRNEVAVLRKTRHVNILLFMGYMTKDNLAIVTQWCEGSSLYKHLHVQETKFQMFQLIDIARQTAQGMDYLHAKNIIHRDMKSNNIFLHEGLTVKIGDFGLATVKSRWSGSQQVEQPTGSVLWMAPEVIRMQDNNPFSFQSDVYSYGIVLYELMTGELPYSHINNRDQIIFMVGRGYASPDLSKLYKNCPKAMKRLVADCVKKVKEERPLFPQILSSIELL

On to `C#Cc1cc(C(=O)Nc2ccc(CNCCN3CCOCC3)c(C(F)(F)F)c2)ccc1C` [Cmp. 10, 3-ethynyl-4-methyl-N-(4-(((2-morpholinoethyl)amino)methyl)-3-(trifluoromethyl)phenyl)benzamide], for which the IC50 in assay [1] stood at 1360 nM.

In the case of `C#Cc1cc(C(=O)Nc2ccc(CNCCN3CCN(C(=O)OC)CC3)c(C(F)(F)F)c2)ccc1C` [Cmp. 8, Methyl 4-[2-([[4-(3-Ethynyl-4-Methylbenzamido)-2-(Trifluoromethyl)Phenyl]Methyl] Amino)Ethyl]Piperazine-1-Carboxylate], the IC50 in assay [1] turned out to be 1790 nM.

`COc1cc(N2CCN(CCNCc3ccc(NC(=O)c4ccc(C)c(C#Cc5cnc6cccnn56)c4)cc3C(F)(F)F)CC2)ncn1` [Cmp. 4, 3-(imidazo[1,2-b]pyridazin-3-ylethynyl)-N-(4-(((2-(4-(6-methoxypyrimidin-4-yl)piperazin-1-yl)ethyl)amino)methyl)-3-(trifluoromethyl)phenyl)-4-methylbenzamide]: the IC50 in [1] was 48 nM.

For the compound `C#Cc1cc(C(=O)Nc2ccc(CNCCN3CCN(c4ccccc4)CC3)c(C(F)(F)F)c2)ccc1C` [Cmp. 11, 3-Ethynyl-4-Methyl-N-[4-([[2-(4-Phenylpiperazin-1-Yl)Ethyl]Amino]Methyl)-3-(Trifluoromethyl)Phenyl] benzamide], the half-inhibitory concentration (IC50) in assay [1] is 8940 nM.

Consider `Cc1ccc(C(=O)Nc2ccc(CNCCN3CCNCC3)c(C(F)(F)F)c2)cc1C#Cc1cnc2cccnn12` [Cmp. 13, 3-(2-[imidazo[1,2-b]pyridazin-3-yl]ethynyl)-4-methyl-n-[4-([[2-(piperazin-1-yl)ethyl]amino]methyl)-3-(trifluoromethyl)phenyl]benzamide], for which the IC50 in [1] came out at 5.5 nM.

On to `Cc1ccc(C(=O)Nc2ccc(CNCCN3CCC(=O)CC3)c(C(F)(F)F)c2)cc1C#Cc1cnc2cccnn12` [Cmp. 5, 3-(imidazo[1,2-b]pyridazin-3-ylethynyl)-4-methyl-N-(4-(((2-(4-oxopiperidin-1-yl)ethyl)amino)methyl)-3-(trifluoromethyl)phenyl)benzamide], for which the IC50 in [1] turned out to be 30.7 nM.

On to `C#Cc1cc(C(=O)Nc2ccc(CNCCN3CCNCC3)c(C(F)(F)F)c2)ccc1C` [Cmp. 12, 3-Ethynyl-4-Methyl-N-[4-([[2-(Piperazin-1-Yl)Ethyl]Amino]Methyl)-3-(Trifluoromethyl)Phenyl] benzamide], for which the IC50 in [1] turned out to be 11900 nM.

`Cc1ccc(C(=O)Nc2ccc(CN3CCN(C)CC3)c(C(F)(F)F)c2)cc1C#Cc1cnc2cccnn12` [Ponatinib]: the “Inhibition of BRAF^V600E phosphorylation of recombinant MEK” value in assay [2] is recorded as “potent inhibitor”. In addition, the “Inhibition of CRAF activity” value in [3] is “potently inhibited”. In addition, in assay [4], the “Inhibition of ERK signaling” value is “inhibited ERK signaling”.

For the compound `N#Cc1c(Oc2ccc(F)c(NC(=O)Cc3cccc(C(F)(F)F)c3)c2)ccc2nc(NC(=O)C3CC3)sc12` [TAK-632, reference compound], the IC50 in assay [1] worked out at 36.2 nM.

Consider `Cc1ccc(C(=O)Nc2ccc(CNCCc3ccncn3)c(C(F)(F)F)c2)cc1C#Cc1cnc2cccnn12` [Cmp. 7, 3-(imidazo[1,2-b]pyridazin-3-ylethynyl)-4-methyl-N-(4-(((2-(pyrimidin-4-yl)ethyl)amino)methyl)-3-(trifluoromethyl)phenyl)benzamide], for which the IC50 in assay [1] stood at 44.3 nM.

For the compound `Cc1ccc(C(=O)Nc2ccc(CNCCN3CCN(S(C)(=O)=O)CC3)c(C(F)(F)F)c2)cc1C#Cc1cnc2cccnn12` [Cmp. 6, 3-(imidazo[1,2-b]pyridazin-3-ylethynyl)-4-methyl-N-(4-(((2-(4-(methylsulfonyl)piperazin-1-yl)ethyl)amino)methyl)-3-(trifluoromethyl)phenyl)benzamide], the IC50 in [1] turned out to be 29.4 nM.

Take `C#Cc1cc(C(=O)Nc2ccc(CNCCN3CCN(c4ccccn4)CC3)c(C(F)(F)F)c2)ccc1C` [Cmp. 14, 3-Ethynyl-4-Methyl-N-(4-(((2-(4-(Pyridin-2-Yl)Piperazin-1-Yl)Ethyl)Amino)Methyl)-3-(Trifluoromethyl)Phenyl) benzamide]: in assay [1], the IC50 was 1830 nM.

`Cc1ccc(C(=O)Nc2ccc(CNCCN3CCOCC3)c(C(F)(F)F)c2)cc1C#Cc1cnc2cccnn12` [PHI1, 3-(imidazo[1,2-b]pyridazin-3-ylethynyl)-4-methyl-N-(4-(((2-morpholinoethyl)amino)methyl)-3-(trifluoromethyl)phenyl)benzamide]: the IC50 in assay [1] was 10.4 nM; in assay [8] (SKMEL239-C4 cells, 1 hr treatment), 300 to 500 nM. Besides, the “Difference in Koff values versus ponatinib (BLI)” value in assay [5] was “no significant difference”. Besides, the “Affinity for BRAF^V600E compared to ponatinib (BLI)” value in assay [5] (25° C., PBS, 0.01% Tween-20, 2% DMSO) is given as “higher affinity”. Further, the “Reduction of inhibitory activity for FGFR relative to ponatinib” value in assay [6] is given as 43 fold. The “Reduction of inhibitory activity for FLT3 relative to ponatinib” value in assay [7] came out at 10 fold. Also, in [8] (SKMEL239 C4 cells with vs without Encorafenib pre-treatment), the “Co-operativity in second site inhibition of BRAF^V600E dimer (p-ERK IC50 upon Encorafenib pre-treatment)” value is “positive co-operativity”. Besides, in [9], the “Activity against BRAF^V600E monomers in A375 cells” value is “significantly reduced compared to ponatinib”. Also, the “Growth inhibition (viability)” value in assay [10] is listed as “inhibits effectively the growth”. In addition, the “Binding affinity for BRAF monomers (ITC)” value in [11] is given as “high micromolar affinity”. The “Induction of BRAF/CRAF complexes” value in assay [12] is given as “induces less”. For the same compound, in assay [13], the “Induction of BRAF/MEK complexes” value is “induces less”.

As to `C#Cc1cc(C(=O)Nc2ccc(CNCCN3CCN(C(=O)OC(C)(C)C)CC3)c(C(F)(F)F)c2)ccc1C` [Cmp. 9, Tert-Butyl4-[2-([[4-(3-Ethynyl-4-Methylbenzamido)-2-(Trifluoromethyl)Phenyl]Methyl] Amino)Ethyl]Piperazine-1-Carboxylate], in assay [1], the IC50 came to 10900 nM.

For `CCN(C)S(=O)(=O)Nc1ccc(F)c(C(=O)c2c[nH]c3ncc(-c4cnc(C5CC5)nc4)cc23)c1F` [PLX7904, reference compound], the IC50 in [1] was 6.7 nM.
